The data set concerns L1210 murine leukemia. The experiment in a line: Intravenous L1210 murine leukemia model. As to conditions: for % ILS (increase in lifespan) / DRD (drug related deaths) / MWL (maximum mean weight loss) / TF (tumor free animals at end of study): L1210 i.v. How it is done:
FIG. 3. […] L1210 cells (10^5 cells in 200 μl) were injected i.v. into the tail vein of BDF-1 mice on day 0. […] Each group consisted of 8 animals. Data is from NCTEF-005.
In the above formula, MTD is the maximum tolerated dose, defined as that dose that causes a mean weight loss of 20% in a group of animals; and MED is the minimal effective dose, defined as the dose that produces an optimal % T/C value of ≦40 in the solid tumor models or an % ILS of 50±10% in the survival models.

[1] abbreviates: L1210, single i.v. dose, highest dose of free topotecan.

Regarding `CC[C@@]1(O)C(=O)OCc2c1cc1n(c2=O)Cc2cc3c(CN(C)C)c(O)ccc3nc2-1` [Free, 9-dimethylaminomethyl-10-hydroxy-camptothecin], under setting [1], the “long-term survivors (day 60)” value is reported as “one long-term survivor” and the median survival turned out to be 13 days. Moreover, where the note is “single i.v. dose 5 mg/kg”, the “% ILS (increase in lifespan)” value is recorded as 11%, the “DRD (drug related deaths)” value was 0/8, the “MWL (maximum mean weight loss)” value is given as “+” and the “TF (tumor free animals at end of study)” value is given as 0/8. Also, under “single i.v. dose 10 mg/kg”, the “% ILS (increase in lifespan)” value was found to be 22%, the “DRD (drug related deaths)” value is given as 0/8, the “MWL (maximum mean weight loss)” value is listed as “+” and the “TF (tumor free animals at end of study)” value is listed as 0/8. In addition, for the setting “single i.v. dose 20 mg/kg”, the “% ILS (increase in lifespan)” value came to 33%, the “DRD (drug related deaths)” value is 0/8, the “MWL (maximum mean weight loss)” value is reported as “+” and the “TF (tumor free animals at end of study)” value is reported as 0/8. Further, where the note is “single i.v. dose 30 mg/kg”, the “DRD (drug related deaths)” value is on record as 0/8, the “MWL (maximum mean weight loss)” value is “+” and the “TF (tumor free animals at end of study)” value is recorded as 0/8. Where the note is “single i.v. dose 40 mg/kg”, the “DRD (drug related deaths)” value is 0/8, the “MWL (maximum mean weight loss)” value is recorded as “+” and the “TF (tumor free animals at end of study)” value is reported as 0/8.

Values taken from US20110086826A1, “LIPOSOMAL CAMPTOTHECINS AND USES THEREOF” (TEKMIRA PHARMACEUTICALS CORPORATION, priority 2000, published 2011).
